# Columns and labels:
# [1] = system: SHR-SP rats; assay: 2-lever discriminative reaction task in SHR-SP rats (ADHD model); assay type: in vivo, rat
# Excerpt: A. Test method (1) While spontaneously hypertensive rat (SHR) is a hypertension model rat widely used in research, this lineage not only develops hypertension but also behaves similarly in the juvenile stage to patients with attention deficit/hyperactivity disorder (attention-deficit/hyperactivity disorder: ADHD), as evidenced by disrupted retention of attention and the like (Sagvolden T, Russell V A, Aase H, Johansen E B, Farshbaf M. (2005): Rodent models of attention-deficit/hyperactivity disorder. Biol Psychiatry. 57(11): 1239-47). Particularly, SHR-SP (subtype of SHR) in the juvenile stage is recently recognized as an animal model of developmental disorder such as ADHD by those of ordinary skill in the art (Ueno K I, Togashi H, Mori K, Matsumoto M, Ohashi S, Hoshino A, Fujita T, Saito H, Minami M, Yoshioka M. (2002): Behavioural and pharmacological relevance of stroke-prone spontaneously hypertensive rats as an animal model of a developmental disorder. Behav Pharmacol. 13(1): 1-13).
# Thus, those of ordinary skill in the art consider that SHR-SP is suitable as an ADHD model.
# Therefore, the inventor employed the SHR-SP rats and evaluated the effect of compound A on ADHD.
# (2) The test was performed using 24 SHR-SP rats and 12 WKY rats (both 5-week-old; provided by CLEA Japan, Inc.). They were reared at 12 hr light-dark cycle (light was on at 7:00 am) and allowed free access to water. The feeding was restricted such that the body weight was 85% of that by free food ingestion. All rats were subjected to handling before the test.
# As a test apparatus, 4 Skinner boxes each equipped with a 45 mg feed pellet feeding tray (reward delivery opening) in the center of the wall and a cue lamp and a retractable lever set on the sides of the tray were set (see FIG. 1).
# (3) The rats were trained for 2 days for lever pressing-feeding associative learning. One session consisted of 30 trials or 900 sec. Two levers were presented, pressing either lever affords feed pellets (reinforcer), and a buzzer sound indicating correctness was made. Solely in the training on the initial day, feed pellets were automatically given with a buzzer every 45 seconds. All animals reached the criteria obtaining 30 feed pellets within 300 sec. (4) In the test session, a 2-lever discriminative reaction task was performed. In the 2-lever discriminative reaction task, 1 session consisted of 30 sets of ITI (inter-trial interval) for 30 sec and reaction latency for 30 sec maximum. The house lamp was turned on at the start of the session to indicate both retractable levers. The lever pressing reaction of the animal was sequentially recorded while indicating the levers until completion of 30 trials. […]
# [2] = system: SHR-SP; conditions: at a low dose; cited from earlier work
SMILES,"transition of total number of reaction during trials (index of impulsivity) ([1]; 1.0 mg/kg oral daily, up to session 4, positive drug group vs control group, FIG. 5)","correct answer latency (reaction latency when correct answer was selected) (index of motivation, sedation and the like) ([1]; 1.0 mg/kg oral, 14 consecutive days, positive drug group vs control group, FIG. 7)","number of correct answers (number of reward obtained) (index of attentional deficit) ([1]; 1.0 mg/kg oral, 14 consecutive days, positive drug group vs control group, p=0.09, FIG. 6)","total number of reaction during trials (index of impulsivity) ([1]; 1.0 mg/kg oral, 14 consecutive days, session 11, positive drug group vs control group, t-test p=0.09, FIG. 5)",effect on abnormal behaviors of SHR-SP [2]
"CCC(=O)NCC[C@@H]1CCc2ccc3c(c21)CCO3 [compound A, (S)—N-[2-(1,6,7,8-tetrahydro-2H-indeno[5,4-b]furan-8-yl)ethyl]propionamide]",similar,did not show much difference,tended to increase,tended to decrease,
COC(=O)C(c1ccccc1)C1CCCCN1 (centres unmarked) [methylphenidate],,,,,improving effect
